# Experiments:
# Assay type in all cases: cell-based, mouse
# C2C12 cells [1] = experiment: Transwell cell migration assay; details: C2C12 trans-well, 5 hours, PD 50 µM, NVP 100 nM; for Effect of inhibitor on EB induced migration: EB 100 nM
# Experimental: E-peptide effects on cell migration were tested using a 24-well Transwell (8.0 µm pore size) plate assay (Corning Inc., Lowell, MA). C2C12 cells (2×10^4) were seeded in the upper chambers in serum-free media, and synthetic E-peptides in serum-free media were placed in the bottom chambers. Cells were allowed to migrate for 5 hours. Non-migrated cells remaining in the upper chamber were removed from the transwell membranes with Q-tips and migrated cells were fixed with 4% formaldehyde and stained with DAPI. The transwell membranes were mounted onto slides, and imaged at 10× using above-mentioned microscopy and analysis software. For MAPK signaling or IGF-IR inhibition, PD (50 µM) or NVP (100 nM) was added to both chambers at the start of the experiment.
# C2C12 cells [2] = experiment: BrdU cell proliferation assay (plate and slide); details: for Effect of inhibitor on IGF-I induced proliferation: C2C12 BrdU plate assay, IGF-I 10 nM, PD 50 µM, NVP 100 nM
# Experimental: Proliferation was measured using a 5-bromo-2P-deoxyuridine (BrdU) plate and slide assays (Roche, Indianapolis, IN). For the plate assay, 5×10^3 C2C12 cells were seeded in 96-well plates. Cells were starved for 6 hours, and treated with synthetic E-peptides or recombinant IGF-I overnight. BrdU was added for incorporation for 2 hours before cell lysis and BrdU staining. For MAPK inhibition, a MEK inhibitor was added to the media (PD 098059, Sigma, 50 µM). For IGF-IR inhibition, 100 nM NVPAEW541 was added to the media. The slide assay was done as above, except with 2×10^4 C2C12 cells in 24-well plates on glass cover slips. Cells were stained with an antibody to BrdU and with DAPI (VectorLabs, Burlingame, CA) to visualize nuclei. Images were acquired using a Leica DMR epifluorescence microscope using OpenLab imaging software (Improvision, PerkinElmer, Waltham, MA).
# [3] = system: ERK1/2 phosphorylation (MAPK signaling) in C2C12 cells; experiment: ERK1/2 phosphorylation immunoblot after synthetic E-peptide treatment
# Experimental: (§1) C2C12 (ATCC, Manassas, VA) cells were maintained in growth media (DMEM containing, 10% fetal bovine serum, and gentamicin). For signaling experiments, 2×10^4 cells were seeded in 6-well plates in growth media and allowed to attach and grow overnight. The next day, cells were starved overnight in growth media without serum. On the third day, cells were treated with synthetic E-peptides and/or recombinant human IGF-I (Gemini Bio-Products West Sacramento, CA) for the time periods indicated in figures, and the cells were processed for immunoblotting as described below. For IGF-IR inhibition, 100 nM NVPAEW541 [47] diluted in DMSO or DMSO only was added to starved cells 90 minutes before and during treatment with synthetic peptides.
# (§2) Signaling pathway activation was determined by immunoblotting.
# [4] = system: Akt phosphorylation in C2C12 cells; experiment: Akt phosphorylation immunoblot; details: C2C12, 20 min; EA 1 µM, EB 10 nM, IGF-I 10 nM
# Experimental: as §1, §2
Compound,Effect of inhibitor on EB induced migration (C2C12 cells [1]),Effect of inhibitor on cell migration in the absence of E-peptides (C2C12 cells [1]),Effect of inhibitor on IGF-I induced proliferation (C2C12 cells [2]),"Effect of IGF-IR inhibitor on ERK1/2 phosphorylation in EA, EB and IGF-I treated cells ([3]; C2C12, NVP 100 nM 90 min before and during 20 min stimulation, EA 1 µM, EB 10 nM, IGF-I 10 nM, vs DMSO, N = 3)","Effect of IGF-IR inhibitor on ERK1/2 phosphorylation in NoTx cells ([3]; C2C12, NVP 100 nM vs DMSO, no stimulation)",P-Akt response (in words) [4],"Proliferation by BrdU positivity on slides (in words) (C2C12 cells [2]; C2C12 on cover slips, EA and Scr 100 nM, EB and IGF 10 nM, N = 5 slides)","P-ERK1/2 response (in words), without inhibitor ([3]; C2C12, 20 min, EA 1 µM, EB 10 nM, IGF-I 10 nM, DMSO)"
"Nc1ncnc2c1c(-c1cccc(OCc3ccccc3)c1)cn2[C@H]1C[C@@H](CN2CCC2)C1 [NVP, NVPAEW541]",significantly decreased EB induced migration,not affected,significantly decreased IGF-I induced proliferation,significantly reduced the ERK1/2 phosphorylation,no change in ERK1/2 phosphorylation,,,
"COc1cccc(-c2cc(=O)c3ccccc3o2)c1N [PD, PD 098059]",decrease in EB migration that did not reach significance,not affected,significantly decreased IGF-I induced proliferation,,,,,
"IGF-I: recombinant human IGF-I (Gemini Bio-Products), positive control",,,,,,increase in both P-Akt and P-ERK1/2,increased C2C12 proliferation,increase in both P-Akt and P-ERK1/2

# Reference: publication PMC3448668, “Insulin-Like Growth Factor-I E-Peptide Activity Is Dependent on the IGF-I Receptor” (PLoS ONE, 2012)
